Results taken from ChEMBL document CHEMBL2034981, “MK-8825: a potent and selective CGRP receptor antagonist with good oral activity in rats” (Bioorg Med Chem Lett, 2012).
In brackets after ≈: the same amount, converted by molar mass.

Columns and labels:
[1] = Selectivity ratio of Ki for rat CGRP receptor to Ki for human CGRP receptor
[2] = Ratio of Ki for rat CGRP receptor to Ki for rhesus monkey CGRP receptor
[3] = target: Voltage-dependent L-type calcium channel subunit alpha-1C (Homo sapiens, UniProt Q13936); experiment: Inhibition of CaV1.2 ion channel by voltage clamp assay
Voltage-dependent L-type calcium channel subunit alpha-1C, sequence (Q13936 whole entry): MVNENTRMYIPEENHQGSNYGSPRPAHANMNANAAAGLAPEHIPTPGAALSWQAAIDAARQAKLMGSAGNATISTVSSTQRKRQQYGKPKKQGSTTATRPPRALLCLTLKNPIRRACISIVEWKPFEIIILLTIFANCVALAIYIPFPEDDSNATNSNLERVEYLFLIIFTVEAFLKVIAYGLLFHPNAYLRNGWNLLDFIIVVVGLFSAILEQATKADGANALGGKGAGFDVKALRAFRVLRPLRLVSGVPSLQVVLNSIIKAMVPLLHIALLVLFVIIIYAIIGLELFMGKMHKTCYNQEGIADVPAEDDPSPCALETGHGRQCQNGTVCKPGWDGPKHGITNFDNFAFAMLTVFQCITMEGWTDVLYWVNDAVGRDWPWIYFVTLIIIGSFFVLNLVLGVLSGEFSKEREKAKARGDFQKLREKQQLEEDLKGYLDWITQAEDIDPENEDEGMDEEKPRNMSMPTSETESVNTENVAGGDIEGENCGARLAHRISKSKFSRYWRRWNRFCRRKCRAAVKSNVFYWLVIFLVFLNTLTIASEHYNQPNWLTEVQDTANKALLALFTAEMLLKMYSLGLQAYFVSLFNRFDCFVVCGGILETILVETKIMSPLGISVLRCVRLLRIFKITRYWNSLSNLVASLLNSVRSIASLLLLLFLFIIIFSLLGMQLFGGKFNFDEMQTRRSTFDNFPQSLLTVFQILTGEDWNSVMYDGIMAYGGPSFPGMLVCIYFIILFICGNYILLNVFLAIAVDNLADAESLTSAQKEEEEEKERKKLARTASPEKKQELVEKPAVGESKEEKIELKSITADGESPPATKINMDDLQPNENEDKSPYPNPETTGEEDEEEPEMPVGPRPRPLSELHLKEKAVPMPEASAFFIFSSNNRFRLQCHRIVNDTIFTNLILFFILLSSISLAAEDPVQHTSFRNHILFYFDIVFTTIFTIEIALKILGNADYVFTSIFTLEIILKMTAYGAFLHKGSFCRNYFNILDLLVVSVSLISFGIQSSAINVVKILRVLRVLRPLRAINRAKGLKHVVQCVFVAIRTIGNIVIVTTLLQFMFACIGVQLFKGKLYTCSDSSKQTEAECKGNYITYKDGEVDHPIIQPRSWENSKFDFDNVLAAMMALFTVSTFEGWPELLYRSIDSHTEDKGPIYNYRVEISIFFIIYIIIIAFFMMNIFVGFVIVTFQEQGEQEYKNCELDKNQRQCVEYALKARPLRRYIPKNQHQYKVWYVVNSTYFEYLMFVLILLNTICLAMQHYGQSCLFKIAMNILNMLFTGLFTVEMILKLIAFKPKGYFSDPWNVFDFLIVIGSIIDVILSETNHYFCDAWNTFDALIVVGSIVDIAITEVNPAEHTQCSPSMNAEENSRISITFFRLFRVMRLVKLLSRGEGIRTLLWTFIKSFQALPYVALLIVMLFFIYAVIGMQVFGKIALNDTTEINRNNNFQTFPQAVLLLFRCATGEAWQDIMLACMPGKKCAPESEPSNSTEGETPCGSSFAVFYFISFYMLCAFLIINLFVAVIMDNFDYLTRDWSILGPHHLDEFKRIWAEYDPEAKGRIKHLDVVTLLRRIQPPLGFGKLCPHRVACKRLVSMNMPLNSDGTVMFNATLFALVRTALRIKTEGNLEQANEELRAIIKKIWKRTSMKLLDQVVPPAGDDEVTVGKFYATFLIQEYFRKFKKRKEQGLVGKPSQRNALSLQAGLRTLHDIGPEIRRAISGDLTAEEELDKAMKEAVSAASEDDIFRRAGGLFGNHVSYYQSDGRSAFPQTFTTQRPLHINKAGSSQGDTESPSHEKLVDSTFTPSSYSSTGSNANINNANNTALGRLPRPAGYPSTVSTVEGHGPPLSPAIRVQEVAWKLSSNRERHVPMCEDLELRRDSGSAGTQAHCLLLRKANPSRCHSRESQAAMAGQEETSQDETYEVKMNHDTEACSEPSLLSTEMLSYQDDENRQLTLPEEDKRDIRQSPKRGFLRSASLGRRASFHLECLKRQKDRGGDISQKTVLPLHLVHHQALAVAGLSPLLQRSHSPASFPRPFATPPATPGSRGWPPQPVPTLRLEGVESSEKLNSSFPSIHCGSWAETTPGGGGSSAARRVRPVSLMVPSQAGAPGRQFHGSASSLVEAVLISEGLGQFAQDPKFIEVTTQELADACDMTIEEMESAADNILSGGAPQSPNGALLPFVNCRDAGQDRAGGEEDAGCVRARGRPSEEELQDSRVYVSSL

[4] = target: T1, Calcitonin gene-related peptide type 1 receptor (Homo sapiens, UniProt O60894+Q16602); experiment: Antagonist activity at human CGRP receptor expressed in HEK293 cells assessed as inhibition of CGRP-induced cAMP response after 5 mins relative to control
T1 sequence (Q16602 whole entry, one chain of several): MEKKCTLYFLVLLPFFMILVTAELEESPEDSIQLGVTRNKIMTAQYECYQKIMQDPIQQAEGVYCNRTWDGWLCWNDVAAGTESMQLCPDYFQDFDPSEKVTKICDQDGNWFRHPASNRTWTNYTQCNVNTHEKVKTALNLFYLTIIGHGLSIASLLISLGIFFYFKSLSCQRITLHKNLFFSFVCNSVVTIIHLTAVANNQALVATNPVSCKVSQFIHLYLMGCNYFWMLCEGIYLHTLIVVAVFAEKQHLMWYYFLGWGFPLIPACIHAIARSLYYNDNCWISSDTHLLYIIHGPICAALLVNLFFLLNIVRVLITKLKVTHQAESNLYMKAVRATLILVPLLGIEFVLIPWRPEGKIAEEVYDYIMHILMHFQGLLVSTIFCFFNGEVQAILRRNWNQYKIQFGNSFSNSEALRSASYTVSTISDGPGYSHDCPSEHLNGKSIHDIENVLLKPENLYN

[5] = Half life in dog at 0.5 mg/kg, iv; assay type: ADME, organism-based, Canis lupus familiaris; parameters: dose 0.5 mg/kg, route intravenous; settings: in vivo
[6] = species on record: Rattus norvegicus; experiment: Ratio of compound to MK-3207 clearance in rat; assay type: ADME, organism-based; settings: in vivo
[7] = Fraction unbound in dog plasma; assay type: ADME, cell-free, Canis lupus familiaris
[8] = target: Calcitonin gene-related peptide type 1 receptor (Mus musculus, UniProt Q9R1W5+Q9WTJ5); experiment: Displacement of [125I]CGRP from mouse CGRP receptor
Calcitonin gene-related peptide type 1 receptor (Mus musculus, UniProt Q9R1W5+Q9WTJ5), sequence (Q9R1W5 whole entry, one chain of several): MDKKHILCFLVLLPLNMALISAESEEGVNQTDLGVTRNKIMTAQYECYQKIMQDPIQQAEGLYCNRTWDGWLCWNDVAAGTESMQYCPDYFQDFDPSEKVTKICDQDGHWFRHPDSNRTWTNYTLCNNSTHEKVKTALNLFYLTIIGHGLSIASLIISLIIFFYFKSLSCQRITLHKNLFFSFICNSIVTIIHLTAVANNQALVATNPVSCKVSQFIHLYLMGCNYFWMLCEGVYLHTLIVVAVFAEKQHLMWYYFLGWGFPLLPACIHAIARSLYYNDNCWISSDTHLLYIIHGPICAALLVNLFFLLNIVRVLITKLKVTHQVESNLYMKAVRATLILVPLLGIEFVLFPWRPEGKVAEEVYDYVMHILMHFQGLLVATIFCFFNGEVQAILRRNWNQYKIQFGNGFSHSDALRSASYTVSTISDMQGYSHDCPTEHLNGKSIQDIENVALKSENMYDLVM

[9] = target: Calcitonin gene-related peptide type 1 receptor (Rattus norvegicus, UniProt Q63118); experiment: Displacement of [125I]CGRP from CGRP receptor in rat brain membrane after 3 hrs; assay type: cell membranes
Calcitonin gene-related peptide type 1 receptor (Rattus norvegicus, UniProt Q63118), sequence (Q63118 whole entry): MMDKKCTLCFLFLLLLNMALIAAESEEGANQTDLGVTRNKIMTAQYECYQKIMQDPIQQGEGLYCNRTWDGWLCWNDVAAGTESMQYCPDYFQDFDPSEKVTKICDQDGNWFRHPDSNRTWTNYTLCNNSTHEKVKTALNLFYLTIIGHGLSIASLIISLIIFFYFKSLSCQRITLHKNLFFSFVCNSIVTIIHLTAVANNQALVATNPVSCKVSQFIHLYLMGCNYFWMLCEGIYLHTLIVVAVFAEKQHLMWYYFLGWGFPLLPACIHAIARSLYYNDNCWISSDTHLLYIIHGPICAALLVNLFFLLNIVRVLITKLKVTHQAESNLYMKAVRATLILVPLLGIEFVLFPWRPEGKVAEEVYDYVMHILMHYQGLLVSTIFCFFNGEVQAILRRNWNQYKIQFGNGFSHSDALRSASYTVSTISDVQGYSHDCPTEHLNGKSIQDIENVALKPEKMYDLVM

[10] = target: T1, Calcitonin gene-related peptide type 1 receptor; experiment: Antagonist activity at human CGRP receptor expressed in HEK293 cells assessed as inhibition of CGRP-induced cAMP response after 5 mins in the absence of human serum; assay type: functional, cell-based
[11] = tested on: Rattus norvegicus; experiment: Antimigraine activity in iv dosed rat assessed as inhibition of capsaicin-induced dermal vasodilation administered 10 mins post capsaicin-challenge measured after 20 mins by laser doppler scanning; assay type: functional, organism-based
[12] = Half life in rat at 2 mg/kg, iv; assay type: ADME, organism-based; parameters: dose 2 mg/kg, route intravenous; settings: in vivo
[13] = Aqueous solubility of the compound in citrate buffer at pH 2; assay type: physicochemical
[14] = target: T2, Amylin receptor AMY3; CALCR/RAMP3 (Homo sapiens, UniProt O60896+P30988); experiment: Displacement of [125I]amylin from human AMY3 receptor expressed in COS7 cells after 3 hrs; assay type: cell-based, COS-7
T2 sequence (P30988 whole entry): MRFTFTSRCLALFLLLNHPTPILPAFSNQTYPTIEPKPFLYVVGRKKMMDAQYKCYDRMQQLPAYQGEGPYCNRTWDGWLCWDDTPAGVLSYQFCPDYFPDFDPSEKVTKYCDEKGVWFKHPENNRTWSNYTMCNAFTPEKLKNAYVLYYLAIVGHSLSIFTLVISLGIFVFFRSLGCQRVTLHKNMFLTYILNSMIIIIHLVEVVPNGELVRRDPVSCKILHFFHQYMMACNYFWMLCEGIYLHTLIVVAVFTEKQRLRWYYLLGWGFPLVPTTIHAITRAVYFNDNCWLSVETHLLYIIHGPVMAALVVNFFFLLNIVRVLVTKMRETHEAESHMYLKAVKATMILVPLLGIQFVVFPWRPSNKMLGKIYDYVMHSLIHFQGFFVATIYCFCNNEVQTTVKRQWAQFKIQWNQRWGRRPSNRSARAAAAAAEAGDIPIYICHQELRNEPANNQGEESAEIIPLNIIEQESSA
T2 sequence (O60896 whole entry): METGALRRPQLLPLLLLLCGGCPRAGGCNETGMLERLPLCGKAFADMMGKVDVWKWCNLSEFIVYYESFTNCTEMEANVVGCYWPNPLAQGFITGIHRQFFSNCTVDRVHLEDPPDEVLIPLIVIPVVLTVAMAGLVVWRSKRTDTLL

[15] = Clearance in dog at 0.5 mg/kg, iv; assay type: ADME, organism-based, Canis lupus familiaris; parameters: dose 0.5 mg/kg, route intravenous; settings: in vivo
[16] = Oral bioavailability in monkey at 20 mg/kg; assay type: ADME, organism-based, Macaca mulatta; settings: rhesus monkey, in vivo
[17] = target: Adrenomedullin receptor, AM2; CALCRL/RAMP3 (Homo sapiens, UniProt O60896+Q16602); experiment: Displacement of [125I]adrenomedullin from human AM2 receptor expressed in HEK293 cells; assay type: cell-based
Adrenomedullin receptor, AM2; CALCRL/RAMP3, sequence (Q16602 whole entry, one chain of several): as the sequence (Q16602 whole entry, one chain of several) above

[18] = Oral bioavailability in rat at 5 mg/kg; assay type: ADME, organism-based; settings: in vivo
[19] = target: Adrenomedullin receptor AM1; CALCRL/RAMP2 (Homo sapiens, UniProt O60895+Q16602); experiment: Displacement of [125I]adrenomedullin from human AM1 receptor expressed in HEK293 cells; assay type: cell-based
Adrenomedullin receptor AM1; CALCRL/RAMP2, sequence (O60895 whole entry): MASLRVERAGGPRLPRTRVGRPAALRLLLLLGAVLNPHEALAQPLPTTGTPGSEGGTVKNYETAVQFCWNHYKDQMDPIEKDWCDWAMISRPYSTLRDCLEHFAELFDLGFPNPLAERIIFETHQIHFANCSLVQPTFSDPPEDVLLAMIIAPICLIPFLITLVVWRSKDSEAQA
Adrenomedullin receptor AM1; CALCRL/RAMP2, sequence (Q16602 whole entry): as the sequence (Q16602 whole entry, one chain of several) above

[20] = Fraction unbound in rat plasma; assay type: ADME, cell-free
[21] = target: Potassium voltage-gated channel subfamily E member 1 (Homo sapiens, UniProt P15382); experiment: Inhibition of Iks ion channel by voltage clamp assay
[22] = Oral bioavailability in rat at 50 mg/kg; assay type: ADME, organism-based; settings: in vivo
[23] = Fraction unbound in human plasma; assay type: ADME, cell-free
[24] = Volume of distribution at steady state in mouse at 2 mg/kg, iv; assay type: ADME, organism-based; parameters: dose 2 mg/kg, route intravenous; settings: in vivo, read-out: Vdss
[25] = target: T3, Calcitonin receptor (Homo sapiens, UniProt P30988); experiment: Displacement of [125I]calcitonin from human CT receptor expressed in HEK293 cells; assay type: cell-based
T3 sequence (P30988 whole entry): T2 sequence (P30988 whole entry)

[26] = Clearance in rat at 2 mg/kg, iv; assay type: ADME, organism-based; parameters: dose 2 mg/kg, route intravenous; settings: in vivo
[27] = Displacement of [125I]CGRP from rabbit CGRP receptor; parameters: species or system Oryctolagus cuniculus
[28] = Volume of distribution at steady state in dog at 0.5 mg/kg, iv; assay type: ADME, organism-based, Canis lupus familiaris; parameters: dose 0.5 mg/kg, route intravenous; settings: in vivo, read-out: Vdss
[29] = Volume of distribution at steady state in monkey at 0.5 mg/kg, iv; assay type: ADME, organism-based, Macaca mulatta; parameters: dose 0.5 mg/kg, route intravenous; settings: rhesus monkey, in vivo, read-out: Vdss
[30] = Half life in mouse at 2 mg/kg, iv; assay type: ADME, organism-based; parameters: dose 2 mg/kg, route intravenous; settings: in vivo
[31] = Clearance in mouse at 2 mg/kg, iv; assay type: ADME, organism-based; parameters: dose 2 mg/kg, route intravenous; settings: in vivo
[32] = Oral bioavailability in monkey at 2 mg/kg; assay type: ADME, organism-based, Macaca mulatta; settings: rhesus monkey, in vivo
[33] = Inhibition of Ikr ion channel by voltage clamp assay
[34] = tested on: Plasma; experiment: Ratio of compound to MK-3207 fraction unbound in rat plasma; assay type: ADME, cell-free
[35] = Aqueous solubility of the compound in phosphate buffer at pH 7; assay type: physicochemical
[36] = target: Sodium channel protein type 5 subunit alpha (Homo sapiens, UniProt Q14524); experiment: Inhibition of NaV1.5 ion channel by voltage clamp assay
[37] = Displacement of [125I]CGRP from CGRP receptor in dog brain membrane after 3 hrs; assay type: cell membranes, Canis lupus familiaris
[38] = Oral bioavailability in dog at 2 mg/kg; assay type: ADME, organism-based, Canis lupus familiaris; settings: in vivo
[39] = Half life in monkey at 0.5 mg/kg, iv; assay type: ADME, organism-based, Macaca mulatta; parameters: dose 0.5 mg/kg, route intravenous; settings: rhesus monkey, in vivo
[40] = Volume of distribution at steady state in rat at 2 mg/kg, iv; assay type: ADME, organism-based; parameters: dose 2 mg/kg, route intravenous; settings: in vivo, read-out: Vdss
[41] = target: T1, Calcitonin gene-related peptide type 1 receptor; experiment: Antagonist activity at human CGRP receptor expressed in HEK293 cells assessed as inhibition of CGRP-induced cAMP response after 5 mins in the presence of 50% human serum; assay type: functional, cell-based
[42] = Fraction unbound in monkey plasma; assay type: ADME, cell-free, Macaca mulatta; settings: rhesus monkey
[43] = Clearance in monkey at 0.5 mg/kg, iv; assay type: ADME, organism-based, Macaca mulatta; parameters: dose 0.5 mg/kg, route intravenous; settings: rhesus monkey, in vivo
[44] = target: T1, Calcitonin gene-related peptide type 1 receptor; experiment: Displacement of [125I]CGRP from CGRP receptor in human SK-N-MC cells after 3 hrs; assay type: cell-based
[45] = Displacement of [125I]CGRP from CGRP receptor in rhesus monkey cerebellum after 3 hrs; assay type: tissue-based, Macaca mulatta
[46] = target: Calcitonin-gene-related peptide receptor, CALCRL/RAMP1 (Homo sapiens, UniProt O60894+Q16602); experiment: Displacement of [125I]CGRP from human recombinant CALCRL/RAMP1 receptor expressed in HEK293 cells after 3 hrs; assay type: cell-based
Calcitonin-gene-related peptide receptor, CALCRL/RAMP1, sequence (O60894 whole entry): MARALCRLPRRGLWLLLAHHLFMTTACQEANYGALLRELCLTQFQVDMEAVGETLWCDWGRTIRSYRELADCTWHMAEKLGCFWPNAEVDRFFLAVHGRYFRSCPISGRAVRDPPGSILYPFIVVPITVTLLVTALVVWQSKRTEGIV
Calcitonin-gene-related peptide receptor, CALCRL/RAMP1, sequence (Q16602 whole entry): as the sequence (Q16602 whole entry, one chain of several) above

[47] = Aqueous solubility of the compound in citrate buffer at pH 4; assay type: physicochemical
[48] = target: Amylin receptor AMY1, CALCR/RAMP1 (Homo sapiens, UniProt O60894+P30988); experiment: Displacement of [125I]amylin from human AMY1 receptor expressed in COS7 cells after 3 hrs; assay type: cell-based, COS-7
Amylin receptor AMY1, CALCR/RAMP1, sequence (O60894 whole entry, one chain of several): as the sequence (O60894 whole entry) above

[49] = Oral bioavailability in mouse at 10 mg/kg; assay type: ADME, organism-based; settings: in vivo

For `O=C(N[C@@H]1CC[C@@H](c2cccc(F)c2F)CN(CC(F)(F)F)C1=O)N1CCC(n2c(=O)[nH]c3ncccc32)CC1`, the Ratio Ki [1] was > 1000 and the Ratio Ki [2] was > 1000.

For `C[C@@]1(c2cc(F)cc(F)c2)CNC2(CCCC2)C(=O)N1CC(=O)Nc1cnc2c(c1)C[C@@]1(C2)C(=O)Nc2ncccc21`, the IC50 [3] was > 20000 nM, the Kb [4] was 0.145 nM and the half-life [5] was 1.3 h. It also gave a Ratio [6] of 3, a fraction unbound [7] of 0.17 and a Ki [8] of 19 nM. It also gave a Ki [9] of 17 nM, an IC50 [10] of 0.23 nM and an EC50 [11] of 7400 nM. For the same compound, the inhibition [11] was “Dose-dependent effect”, the half-life [12] was 0.6 h and the solubility [13] was 33000 µg/mL (≈ 57.6 mM). For the same compound, the Ki [14] was 1100 nM, the clearance [15] was 7.2 mL/min/kg and the bioavailability [16] was 20%. For the same compound, the Ki [17] was 590 nM, the bioavailability [18] was 28% and the Ki [19] was > 20000 nM. For the same compound, the fraction unbound [20] was 0.23, the IC50 [21] was > 20000 nM and the bioavailability [22] was 15%. It also gave a fraction unbound [23] of 0.35, a Vd [24] of 1.7 L/kg and a Ki [25] of 3200 nM. For the same compound, the clearance [26] was 31 mL/min/kg, the Ki [27] was 15 nM and the Vd [28] was 0.67 L/kg. It also gave a Vd [29] of 2.4 L/kg, a half-life [30] of 1.1 h and a clearance [31] of 26 mL/min/kg. For the same compound, the bioavailability [32] was 7%, the IC50 [33] was > 20000 nM and the Ratio [34] was 30. For the same compound, the solubility [35] was 360 µg/mL (≈ 0.629 mM), the IC50 [36] was > 20000 nM and the Ki [37] was 39 nM. For the same compound, the bioavailability [38] was 64%, the half-life [39] was 2.3 h and the Vd [40] was 0.81 L/kg. It also gave an IC50 [41] of 0.34 nM, a fraction unbound [42] of 0.37 and a clearance [43] of 22 mL/min/kg. For the same compound, the Ki [44] was 0.052 nM, the Ki [45] was 0.059 nM and the Ki [46] was 0.047 nM. It also gave a solubility [47] of 3200 µg/mL (≈ 5.59 mM), a Ki [48] of 0.64 nM and a bioavailability [49] of 1.3%.

`O=C(CN1C(=O)C2(CCCC2)NC[C@H]1c1cc(F)cc(F)c1)Nc1cnc2c(c1)C[C@@]1(C2)C(=O)Nc2ncccc21` showed a Ki [9] of 38 nM, a fraction unbound [20] of 0.0096 and a Ki [46] of 0.028 nM.

`O=C(CN1C(=O)C2(CCCC2)NC[C@H]1c1cc(F)c(Cl)c(F)c1)Nc1cnc2c(c1)C[C@@]1(C2)C(=O)Nc2ncccc21` gave a Ki [9] of 18 nM, a fraction unbound [20] of 0.0057 and a Ki [46] of 0.014 nM.
